Test results as given in US9907846B2 (priority 2013, dated 2018).
pIC50: −log10 of the molar value. Several values for one entry are separate records, joined by “and”; a condition that tells them apart may be missing. Identical values can stand only once.

Columns and labels:
HL-60 AML cells = experiment: FMCA cancer cell killing on HL-60 AML cells; type: cell-based, human; details: 3 days, selected concentrations
Experimental: The FMCA method is based on measurement of fluorescence generated from hydrolysis of fluorescein diacetate (FDA) to fluorescein by cells with intact plasma membranes. After above mentioned incubation for 3 days, the medium was removed by aspiration. After one wash with PBS, 100 μl/well of FDA dissolved in a physiological buffer (10 μg/ml) was added. The plates were incubated for 45 minutes and the generated fluorescence from each well was measured in a 96-well scanning fluorometer. The fluorescence is proportional to the number of intact cells in the well. Quality criteria for a successful analysis included a fluorescence signal in the control wells of more than five times of the mean blank value, a mean co-efficient of variation (CV) in the control wells of less than 30%.
The nanoparticles G3 and G3-DT formulated as described in Ex 1 and 2 were compared with the active component QHC form for the cancer cell killing effect. The samples were 5-fold serial diluted in 6 steps starting from 100 μg/ml, and incubated for 3 days with HL-60 AML cells. Then the cells were stained and read by the FMCA method.
HL-60 AML cells were exposed for 3 days at pre-determined concentrations of G3 and cytarabine separately and in combination of these two as shown on FIG. 7. Then the cells were stained and read for cancer cell killing effect by the FMCA method. […]

[1] = Detection of vitamin D3 in the water phase (DiaSorin Liaison); type: physicochemical
Experimental: Samples with cholecalciferol (vitamin D3) incorporated in G3 particles were analysed at a University Hospital Laboratory on a Liaison automatic instrument. Although the assay (DiaSorin Liaison) is designed to measure 25-HO-D3 it has about one percent cross-reactivity with non-hydroxylated vitamin D3.
First, 50% cholesterol and 50% vitamin D3 were used to form the lipid membrane. Quil A was added into the water phase to generate the G3 particles (for details, please refer to Example 1). 100% Cholesterol and 100% Vitamin D3 in water were used as the controls. Samples with vitamin D3 incorporated in G3 particles were analysed at the Uppsala University Hospital Laboratory on a DiaSorin Liaison automatic instrument.

[2] = system: PC-3 prostate cancer cells; experiment: cells; type: cell-based, human
Experimental: The samples were 5-fold serially diluted in 6 steps starting from the concentration of 100 μg/ml, and incubated with PC-3 prostate cancer cells for 3 days. Then the cells were stained and read by the FMCA method.
Then the cells were stained and the cancer cell killing effect was read by the FMCA method.

[3] = Water solubility of drugs incorporated into G3 particles; details: drug alone or incorporated into G3 particles

Experimental for U937 cells: The read out was the particle formulation i.e. the extraction of the membrane into the quillaja micell, the anticancer cell killing effect tested on U937 cancer cells and the stimulation of IL-8 of the same cells (see Materials and Methods).
The Alamar Blue assay was used essentially according recommendations from the supplier (Serotec Ltd, Oxford, UK). Briefly, the cells were adjusted to 1×10^5 cells/ml in cell culture medium and 200 μl/well cells in 96-well plates (Nunc, Roskilde, Denmark). Then various QS formulations or medium alone (as control) was added in triplicates and incubated 3 days at 37° C. in humidified atmosphere containing 5% CO2. Alamar Blue was added to a final concentration of 10% to the wells after specified time points. The cell metabolic activity was subsequently measured up to 8 hrs.
Free form of QA is used as positive control. The cell metabolism activity is analyzed by Alamar Blue at 570 and 600 nm.

Nc1ccn([C@@H]2O[C@H](CO)[C@@H](O)[C@@H]2O)c(=O)n1 [cytarabine]
cells killed (HL-60 AML cells): < 55%

C=C1CC[C@H](O)C/C1=C/C=C1\CCC[C@]2(C)[C@@H]([C@H](C)CCCC(C)C)CC[C@@H]12 [vitamin D3 control, cholecalciferol]
vitamin D3 detected in the water phase [1]: only trace amount

CO[C@H]1C(=O)[C@]2(C)[C@@H](OC)C[C@H]3OC[C@@]3(OC(C)=O)[C@H]2[C@H](OC(=O)c2ccccc2)[C@]2(O)C[C@H](OC(=O)[C@H](O)[C@@H](NC(=O)OC(C)(C)C)c3ccccc3)C(C)=C1C2(C)C [Cabazitaxel, cabazitaxel]
pIC50 ([2]; Homo sapiens, 72 h): 4.59

CS(=O)(=O)OCCCCOS(C)(=O)=O [busulfan]
solubility in water (visual) [3]: clear solutions

CC(=O)O[C@@]12CO[C@@H]1C[C@H](O)[C@@]1(C)C(=O)[C@H](O)C3=C(C)[C@@H](OC(=O)[C@H](O)[C@@H](NC(=O)OC(C)(C)C)c4ccccc4)C[C@@](O)([C@@H](OC(=O)c4ccccc4)[C@H]21)C3(C)C [docetaxel]
cells killed ([2]; PC-3 cells, 3 days, selected concentrations, FMCA): > 2%

N[C@H]1C(O)O[C@H](CO)[C@H](O)[C@@H]1O (stereo partly drawn) [Galactosamine]
EC50 (U937 cells): 0.367 µg/mL and 0.389 µg/mL and 0.214 µg/mL
